“Also recorded” adds a separate entry of the source. Bridge positions count the residues as written; N and C are the ends. Peptide text beside a SMILES is read from it.
Experiments:
[1] = system: mice; experiment: CFA-induced thermal hyperalgesia; type: in vivo, CD-1 mice; conditions: for Effect in CFA test at lowest dose / Dose dependence of effect, thermal hyperalgesia / Dose of maximal effect, thermal hyperalgesia / Reversal of thermal hyperalgesia, 1 mg/kg compared with 0.001–0.002 mg/kg / Thermal hyperalgesia result (in words): intramuscular; for Effect confirmed in independent experiment: sevanol 0.01 mg/kg, Ugr9-1 0.02 mg/kg, data not shown
Protocol: CFA-induced thermal hyperalgesia is a result of different inflammatory pathways’ action on thermal sensitivity of the paw. Injection of CFA into the hind paw provokes increased sensitivity to noxious mechanical and thermal stimuli together with swelling of the paw due to the inflammatory process. […] For APETx2 (Figure 4B), sevanol (Figure 4C), and Ugr9-1 (Figure 4D), the dose dependency of the analgesic effect was evaluated.
Figure 4 Effect of ligands on the CFA-induced thermal hyperalgesia test. Test was performed 2 h after intramuscular administration of ASIC3 antagonists. (A) Comparison between ligands at the dose of 1 mg/kg; (B–D) Dose-dependent chart of ligands’ effect. […] Results are presented as mean ± SEM (n = 7–8). * p < 0.05, ** p < 0.01, *** p < 0.001 versus saline group (ANOVA followed by a Tukey’s test).
(§1) Adult male CD-1 mice (Animal Breeding Facility Branch of Shemyakin-Ovchinnikov Institute of Bioorganic Chemistry, Russian Academy of Sciences, Pushchino, Russia) weighing 20–25 g were used. Animals that originally passed clinical examination that confirmed no deviations in health were divided into groups (at least eight male mice per group) using the principle of randomization. The average body weight of animals in each group was not statistically different between groups. Animals were housed at room temperature (23 ± 2 °C) and subjected to a 12-h light-dark cycle with food and water available ad libitum. All experiments were performed after receiving approval from the Animal Care and Use Committee of the Branch of the Institute of Bioorganic Chemistry, Russian Academy of Sciences (IBCh RAS) (Pushchino, Russia Federation). The samples were administered intramuscularly 2 h before testing (4 h in the open field test). The initial dose of 1 mg/kg was investigated for all samples, which was further reduced 5, 50, and 500 times for peptides.
CFA suspended in an oil/saline (1:1) emulsion was injected into the dorsal surfaces of the left hind paws of mice (20 µL/paw) 24 h before the samples’ intramuscular injection. The control mice received 20 µL of saline (intraplantar). The paw withdrawal latencies to thermal stimulation (53 °C) were measured 2 h after the sample injection. The paw diameter was evaluated before the CFA injection, before the samples and saline administration, and 2, 4, and 24 h after the administration using a digital calliper.
The data significance in animal tests was determined by an analysis of variance followed by a Tukey’s test. Data are presented as the mean ± SEM.

[2] = system: animal models of pain; conditions: cited from earlier work
[3] = system: CFA-induced thermal hyperalgesia; conditions: cited from earlier work
Protocol: An inhibition of ASIC3 was reported to be an attractive approach to producing analgesia. […] Other nonspecific substances can also influence ASIC3 activity. […] Several ligands with inhibitory properties were found for this receptor, each of which was able to induce analgesia in animal tests. The most well-known inhibitor APETx2 in various studies has been tested on models of acid-induced muscle pain model, CFA-induced inflammatory pain model (at doses of 0.07, 0.22 and 2.2 µM). Ugr9-1 was studied in models of CFA-induced thermal hyperalgesia and acetic acid writhing test (at doses of 0.5, 0.1, and 0.01 mg/kg). […] The nonspecific actions on other cellular targets and the changes of ASIC3 involvement in the inflammatory process induced by the high antagonists’ concentration for 2 h are suspected. We conclude that the inhibition of both components of ASIC3 currents could be beneficial but could be reversed by hormesis in high doses and during a long exposure to ...

[4] = system: acetic acid writhing; conditions: cited from earlier work
Protocol: ASIC3 channels play an important role in the perception and maintenance of pain signals in peripheral neurons. Several ligands with inhibitory properties were found for this receptor, each of which was able to induce analgesia in animal tests. The most well-known inhibitor APETx2 in various studies has been tested on models of acid-induced muscle pain model, CFA-induced inflammatory pain model (at doses of 0.07, 0.22 and 2.2 µM). Ugr9-1 was studied in models of CFA-induced thermal hyperalgesia and acetic acid writhing test (at doses of 0.5, 0.1, and 0.01 mg/kg). […] The nonspecific actions on other cellular targets and the changes of ASIC3 involvement in the inflammatory process induced by the high antagonists’ concentration for 2 h are suspected. We conclude that the inhibition of both components of ASIC3 currents could be beneficial but could be reversed by hormesis in high doses and during a long exposure to ...

[5] = system: mice; experiment: Open field test; type: in vivo, CD-1 mice; conditions: 1 mg/kg intramuscular, 4 h before; n = 6–7
Protocol: An open field test was carried out on mice to estimate the possible sedative effects of compounds administration. No statistically significant changes were detected between ASIC3 antagonist-treated groups and the control animals group in 5-min observations of 12 parameters.
Figure 2 Open field experiments on mice. Administration of compounds at a 1 mg/kg dose intramuscularly was done 4 h before of the measurements. (A) Travelling distance and (B) locomotion activity presented as mean ± SEM for 5-min recording period (n = 6–7).
as §1
In the locomotion measurements, exploration and anxiety were evaluated in the motor activity test on a computerized TSE Multi Conditioning System (TSE Systems GmbH, Bad Homburg, Germany). Four hours after the administration of the sample, the measurement was made, which lasted for 3 min. […]
The data significance in animal tests was determined by an analysis of variance followed by a Tukey’s test. […]

[6] = cited from earlier work
From the text: Several explanations could be proposed. First, the result of partial ASIC1a inhibition is unpredictable. Second, better bioavailability of sevanol compared with Ugr9-1 can enhance the effect. Peptides from sea anemones have rather shor ...

[7] = system: ASIC1a; conditions: cited from earlier work
From the text: An inhibition of ASIC3 was reported to be an attractive approach to producing analgesia. […] Other nonspecific substances can also influence ASIC3 activity.

[8] = intravenous, 30 min before testing

Compound	Effect in CFA test at lowest dose ([1]; 0.002 mg/kg (Ugr9-1), 2 h before)	Dose dependence of effect, thermal hyperalgesia ([1]; 2 h before, n = 7–8)	Dose of maximal effect, thermal hyperalgesia ([1]; 2 h before, n = 7–8)	Reversal of thermal hyperalgesia, 1 mg/kg compared with 0.001–0.002 mg/kg ([1]; 2 h before, n = 7–8)	Thermal hyperalgesia result (in words) ([1]; 2 h before, n = 7–8)	Effect confirmed in independent experiment [1]	Analgesic effect ([2]; 0.1–0.5 mg/kg)	Dose dependence, CFA thermal hyperalgesia test [3, 8]	Efficacy in acetic acid writhing test [4, 8]	Travelled distance, time spent freezing, distance in the central area versus control [5]	Reversal of thermal hyperalgesia, comparison at 1 mg/kg ([1]; 1 mg/kg intramuscular, 2 h before, hot plate 53 °C, n = 7–8)	Circulating half-life [6]	Time of final elimination from the blood flow [6]	Effect on CFA-induced thermal hyperalgesia ([3]; 100 mg/kg i.p.)	Effect on acetic acid-induced writhing ([4]; 20 mg/kg i.p.)	Effect in CFA test at lowest dose ([1]; 0.001 mg/kg (sevanol), 2 h before)	Inhibition of ASIC1a [7]	Analgesic and anti-inflammatory effect ([2]; mice, 1–10 mg/kg)
CC[C@H](C)[C@H](N)C(=O)N[C@@H](CO)C(=O)N[C@H](C(=O)N[C@@H](CC(=O)O)C(=O)N1CCC[C@H]1C(=O)N1CCC[C@H]1C(=O)N[C@H]1CSSC[C@@H](C(=O)NCC(=O)N[C@@H](C)C(=O)N[C@H](C(=O)O)C(C)C)NC(=O)CNC(=O)[C@H](Cc2ccc(O)cc2)NC(=O)[C@H](C)NC(=O)[C@H](CC(=O)O)NC(=O)[C@H](Cc2ccc(O)cc2)NC(=O)[C@H](C(C)C)NC(=O)[C@@H]2CSSC[C@H](NC(=O)[C@H](Cc3ccccc3)NC(=O)[C@H](CCCNC(=N)N)NC1=O)C(=O)N[C@@H](Cc1ccc(O)cc1)C(=O)N[C@@H](Cc1c[nH]cn1)C(=O)N[C@@H](CCCNC(=N)N)C(=O)N[C@@H](CC(=O)O)C(=O)NCC(=O)N[C@@H](CO)C(=O)NCC(=O)N[C@@H](CC(N)=O)C(=O)N2)[C@@H](C)CC [Ugr9-1] (H-ISIDPPCRFCYHRDGSGNCVYDAYGCGAV-OH; disulfide 7-26, 10-19; N-terminus and C-terminus assumed)	absence of the effect	bell-shaped; also recorded: nonlinear dose response	0.02 mg/kg	did not differ significantly	reversed CFA-induced thermal hyperalgesia and prolonging withdrawal latency of the inflamed hind paw on a hot plate	confirmed in the independent experiment	significant analgesic effect	clearly dose-dependent	~ 50%	each of these differences was nonsignificant								
O=C(O)Cc1ccccc1Nc1c(Cl)cccc1Cl [diclofenac, reference compound]											equal potency in the reversal of thermal hyperalgesia, which exceeded the analgesic potency of sevanol and Ugr9-1	about 2 h	10 h	significantly reduced CFA-induced thermal hyperalgesia	inhibited acetic acid-induced writhing			
O=C(O)C[C@H](C(=O)O)[C@@H](OC(=O)C1=Cc2cc(O)c(O)cc2[C@@H](c2ccc(O)c(O)c2)[C@@H]1C(=O)O[C@@H](C(=O)O)[C@H](CC(=O)O)C(=O)O)C(=O)O [sevanol]		bell-shaped; also recorded: nonlinear dose response	0.01 mg/kg	did not differ significantly	reversed CFA-induced thermal hyperalgesia and prolonging withdrawal latency of the inflamed hind paw on a hot plate	confirmed in the independent experiment				each of these differences was nonsignificant						absence of the effect	able to inhibit ASIC1a	pronounced analgesic and anti-inflammatory activity
